According to US20050267182A1, “Urea derivatives as FLT-3 modulators” (Ambit Biosciences Corporation, priority 2003, published 2005):

What was measured:
[1] = test system: CS0005; experiment: Cell Assay: CS0005; type: cell-based; settings: cell assay code CS0005
[2] = biological target: T1, FLT3 (Homo sapiens, UniProt P36888); experiment: Binding constant (Kd) measurement, phage-displayed kinase competition binding assay; settings: for Binding Assay: FLT3(DKIN): FLT3(DKIN) construct; for Binding Assay: FLT3(JMminus): FLT3(JMminus) construct
T1 construct: FLT3(DKIN); made in house
T1 sequence (P36888 610-943 limits assumed): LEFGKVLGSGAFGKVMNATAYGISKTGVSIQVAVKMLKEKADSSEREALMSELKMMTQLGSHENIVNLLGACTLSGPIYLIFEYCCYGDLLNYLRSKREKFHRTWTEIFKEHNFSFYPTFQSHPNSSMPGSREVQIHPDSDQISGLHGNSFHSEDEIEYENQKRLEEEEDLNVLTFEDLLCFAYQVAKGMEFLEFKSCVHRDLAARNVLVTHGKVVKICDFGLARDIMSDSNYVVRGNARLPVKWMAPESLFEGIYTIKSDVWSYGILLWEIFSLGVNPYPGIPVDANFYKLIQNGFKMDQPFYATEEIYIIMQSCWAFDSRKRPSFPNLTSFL
From the text: Binding Constant (Kd) Measurements for Small-Molecule-Kinase Interactions
The term “ND” represents non-determined values.

[3] = test system: MV4,11 cells; experiment: FLT3 assay using MV4,11 cells (cellular proliferation, MTS); type: cell-based, human; settings: cell assay code CS0001
Summary of the method: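 MV4,11 AML cells, […] switch to DMEM/10% FBS overnight, plated at 10,000 cells/well and exposed to serially diluted compounds in duplicate for 3 days at 37° C., 5% CO2. Proliferation read by MTS added for 2 h.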

[4] = test system: CS0002; experiment: Cell Assay: CS0002; type: cell-based; settings: cell assay code CS0002

Cell Assay: CS0005:IC50 [1]	Binding Assay: FLT3(DKIN) [2]	Cell Assay: CS0001:IC50 [3]	IC50 [4] [µM]	Binding Assay: FLT3(JMminus) [2]	Binding Assay: FLT3(JMplus) ([2]; FLT3(JMplus) construct)	Cell Assay: CS0002:IC50 [4]	SMILES
+ + +	+ + + +	+ + +	–	–	–	–	Cn1nc(C(C)(C)C)cc1C(=O)Nc1ccc(NC(=O)Nc2cc(C(C)(C)C)on2)cc1 [Compound N10]
+ + + +	+ + + +	+ + + +	> 10	+ + + +	+ + +	–	CC(C)(C)c1cc(NC(=O)Nc2ccc(NC(=O)c3ccccn3)cc2)no1 [Compound N188]
+ + +	+ + + +	+ + + +	> 10	–	–	–	CC(=O)c1ccc(N2CCC(C(=O)Nc3ccc(NC(=O)Nc4cc(C(C)(C)C)on4)cc3)CC2)cc1 [Compound N65]
+ + + +	+ + + +	+ + + +	–	–	–	+ +	CC(C)(C)c1cc(NC(=O)Nc2ccc(NC(=O)c3cn4cc(Cl)ccc4n3)cc2)no1 [Compound N3]
+ + + +	+ + + +	+ + + +	–	–	–	+ +	COc1cc2nc(Cl)nc(Nc3ccc(NC(=O)Nc4cc(C(C)(C)C)on4)cc3)c2cc1OC [Compound O1, 1-(4-(2-chloro-6,7-dimethoxyquinazolin-4-ylamino)phenyl)-3-(5-tert-butylisoxazol-3-yl)urea]
+ + +	+ +	+ +	–	–	–	–	CC(C)(C)c1cc(NC(=O)Nc2ccc(NC(=O)c3ccc(Cl)cc3)cc2)no1 [Compound N26]
+ + +	+ + + +	+ + + +	–	–	–	–	CC(C)(C)c1cc(NC(=O)Nc2ccc(OCc3cccc(F)c3)cc2)no1 [Compound G14]
–	+ + + +	+ + + +	–	–	–	+ +	Cc1nc(-c2cccnc2)sc1C(=O)Nc1ccc(NC(=O)Nc2cc(C(C)C)on2)cc1 [Compound N48]
–	–	+ + + +	–	+ + + +	–	+ +	Cc1nc(-c2ccc(Cl)cc2)sc1C(=O)Nc1ccc(NC(=O)Nc2cc(C(C)(C)C)on2)cc1 [Compound N184]
+ + + +	+ + + +	+ + + +	–	–	–	–	CC(C)(C)c1cc(NC(=O)Nc2ccc(NC(=O)c3ccc4ccccc4c3)cc2)no1 [Compound N28]
–	–	+ + +	–	+ + + +	–	+ +	Cc1ccc(-c2nc(C(=O)Nc3ccc(NC(=O)Nc4cc(C(C)(C)C)on4)cc3)cs2)cc1 [Compound N178]
–	–	+ + + +	> 10	+ + +	–	–	CC(C)(C)c1cc(NC(=O)Nc2ccc(NC(=O)c3cccnc3C(=O)O)cc2)no1 [Compound N165]
+ + +	+ + + +	+ + + +	–	–	–	–	CC(C)(C)c1cc(NC(=O)Nc2ccc(OCc3ccccc3)cc2)no1 [Compound G31]
–	+ + + +	+ + + +	–	–	–	+ +	CC(C)(C)c1cc(NC(=O)Nc2ccc(NC(=O)c3cc4cc(Br)ccc4s3)cc2)no1 [Compound N17]
–	–	+ + +	> 10	+ + +	–	–	CC(C)(C)c1cc(NC(=O)Nc2ccc3c(c2)OCO3)no1 [Compound A56]
–	–	+ + +	> 10	+ + + +	–	–	CC(C)(C)c1cc(NC(=O)Nc2ccc(C(=O)/C=C/c3ccncc3)cc2)no1

Cell Assay: CS0005:IC50 [1]	Binding Assay: FLT3(DKIN) [2]	Cell Assay: CS0001:IC50 [3]	IC50 [4] [µM]	Binding Assay: FLT3(JMminus) [2]	Binding Assay: FLT3(JMplus) ([2]; FLT3(JMplus) construct)	Cell Assay: CS0002:IC50 [4]	SMILES
–	+ + + +	+ + +	–	–	–	+ + +	COc1cc(OC)nc(Sc2ccccc2C(=O)Nc2ccc(NC(=O)Nc3cc(C(C)(C)C)on3)cc2)n1 [Compound N47]
–	+ + + +	+ + + +	–	–	–	+ + +	COc1cc(OC)nc(Nc2cccc(C(=O)Nc3ccc(NC(=O)Nc4cc(C(C)(C)C)on4)cc3)c2)n1 [Compound N49]
–	–	+ + +	–	+ + +	–	+ +	CC(C)(C)c1cc(NC(=O)Nc2ccc(NC(=O)c3nocc3C(C)(C)C)cc2)no1 [Compound N82]
+ + + +	+ + + +	+ + + +	–	–	–	–	CC(C)(C)c1cc(NC(=O)Nc2ccc(NC(=O)c3ccccc3)cc2)no1 [Compound N34]
–	+ + + +	+ +	> 10	–	–	–	CC(C)(C)c1cc(NC(=O)Nc2ccc(NC(=O)c3nccnc3C(N)=O)cc2)no1 [Compound N138]
+ + + +	+ + + +	+ + + +	–	–	–	–	CC(C)(C)c1cc(NC(=O)Nc2ccc(OCc3ccc(-c4ccccc4)cc3)cc2)no1 [Compound G56]
–	+ + + +	+ + +	–	–	–	+ + +	Cn1nc(C(F)(F)F)c(C(=O)Nc2ccc(NC(=O)Nc3cc(C(C)(C)C)on3)cc2)c1Cl [Compound N68]
–	+ + + +	+ + +	> 10	–	–	–	Cn1nc(C(F)(F)F)c2cc(C(=O)Nc3ccc(NC(=O)Nc4cc(C(C)(C)C)on4)cc3)sc21 [Compound N64]
–	–	+ + +	–	+ + +	–	+ +	CC(C)(C)c1cc(NC(=O)Nc2ccc([N+](=O)[O-])cc2)no1 [Compound A21]
–	–	+ + +	–	+ + +	–	+ +	CC(C)(C)c1cnc(CSc2cnc(NC(=O)Nc3ccon3)s2)o1
–	–	+ + +	–	+ + + +	–	+ +	COC(=O)c1cccc(Sc2ncc(NC(=O)Nc3cc(C(C)(C)C)on3)s2)c1 [Compound O8]
–	–	+ + + +	–	+ + + +	–	+ +	Cc1nc(-c2ccccc2)sc1C(=O)Nc1ccc(NC(=O)Nc2cc(C(C)(C)C)on2)cc1 [Compound N181]
–	+ + + +	+ + + +	–	–	–	+ +	CC(C)(C)c1cc(NC(=O)Nc2ccc(NC(=O)c3ccccc3Cl)cc2)no1 [Compound N23]
–	+ + + +	+ + +	–	–	–	+ +	COc1cc(OC)nc(N(C)c2cccc(C(=O)Nc3ccc(NC(=O)Nc4ccon4)cc3)c2)n1 [Compound N53]
–	–	+ + + +	–	+ + + +	–	+ +	CCOC(=O)c1cccc(C(=O)Nc2ccc(NC(=O)Nc3cc(C(C)(C)C)on3)cc2)n1 [Compound N164]
+ + +	+ + + +	+ + + +	–	–	–	–	CC(C)(C)c1cc(NC(=O)Nc2ccc(OCc3cccc(Cl)c3)cc2)no1 [Compound G11]

SMILES	Cell Assay: CS0005:IC50 [1]	Binding Assay: FLT3(DKIN) [2]	Cell Assay: CS0001:IC50 [3]	IC50 [4] [µM]	Binding Assay: FLT3(JMminus) [2]	Binding Assay: FLT3(JMplus) ([2]; FLT3(JMplus) construct)	Cell Assay: CS0002:IC50 [4]
CC(C)(C)c1cc(NC(=O)Nc2ccc(NC(=O)c3cc4ccccc4cn3)cc2)no1 [Compound N106]	+ + + +	–	–	> 10	–	–	–
